Target: HPK1 (Homo sapiens (Human), UniProt Q92918)
Assay: HPK1 Kinase Binding Assay
Settings: LanthaScreen tracer 222 binding, active HPK1, one hour incubation at 25° C.
Procedure, shortened: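 This is a LanthaScreen tracer-binding format: a tracer 222/Eu-anti-GST antibody mix (18 nM and 4 nM solution) is added to active HPK1 (4 nM solution) with 3-fold, 11-point compound dilutions. Incubation is 1 h at 25 °C in HEPES pH 7.5 buffer before reading, and Ki is determined.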

Sequence of HPK1 (Q92918 1-346): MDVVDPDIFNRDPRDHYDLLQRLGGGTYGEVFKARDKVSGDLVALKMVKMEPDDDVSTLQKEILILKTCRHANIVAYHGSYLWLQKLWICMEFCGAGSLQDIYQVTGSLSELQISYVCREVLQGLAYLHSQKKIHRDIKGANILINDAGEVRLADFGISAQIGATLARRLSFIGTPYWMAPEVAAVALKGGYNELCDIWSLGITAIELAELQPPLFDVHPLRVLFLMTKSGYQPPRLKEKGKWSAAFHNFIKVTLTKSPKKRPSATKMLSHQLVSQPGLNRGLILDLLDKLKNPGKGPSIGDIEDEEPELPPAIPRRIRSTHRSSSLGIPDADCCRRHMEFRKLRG

SMILES	Ki
COc1cccc(F)c1-c1ncc2[nH]nc(-c3cc(C)n[nH]3)c2n1 [Example 88, 5-(2-Fluoro-6-methoxyphenyl)-3-(3-methyl-1H-pyrazol-5-yl)-1H-pyrazolo[4,3-d]pyrimidine]	≤ 100 nM
COc1cccc(F)c1-c1ncc2[nH]nc(OCc3ccccc3)c2n1 [Example 89, 3-(Benzyloxy)-5-(2-fluoro-6-methoxyphenyl)-1H-pyrazolo[4,3-d]pyrimidine]	≤ 100 nM
CN1CCN(c2cc(-c3n[nH]c4cnc(-c5c(F)cc6c(c5F)CNCC6)nc34)ccn2)CC1 [Example 90, 6,8-Difluoro-7-(3-(2-(4-methylpiperazin-1-yl)pyridin-4-yl)-1H-pyrazolo[4,3-d]pyrimidin-5-yl)-1,2,3,4-tetrahydroisoquinoline]	≤ 100 nM
OCCNc1ncc(-c2n[nH]c3cnc(-c4c(F)cc5c(c4F)CNCC5)nc23)cn1 [Example 91, 2-(5-(5-(6,8-Difluoro-1,2,3,4-tetrahydroisoquinolin-7-yl)-1H-pyrazolo[4,3-d]pyrimidin-3-yl)pyrimidin-2-ylamino)ethanol]	≤ 100 nM
CN1CCN(c2ncc(-c3n[nH]c4cnc(-c5c(F)cc6c(c5F)CNCC6)nc34)cn2)CC1 [Example 92, 6,8-Difluoro-7-(3-(2-(4-methylpiperazin-1-yl)pyrimidin-5-yl)-1H-pyrazolo[4,3-d]pyrimidin-5-yl)-1,2,3,4-tetrahydroisoquinoline]	≤ 100 nM
CN(C)c1ncc(-c2n[nH]c3cnc(-c4c(F)cc5c(c4F)CNCC5)nc23)cn1 [Example 93, 5-(5-(6,8-Difluoro-1,2,3,4-tetrahydroisoquinolin-7-yl)-1H-pyrazolo[4,3-d]pyrimidin-3-yl)-N,N-dimethylpyrimidin-2-amine]	≤ 100 nM
CNc1ncc(-c2n[nH]c3cnc(-c4c(F)cc5c(c4F)CNCC5)nc23)cn1 [Example 94, 5-(5-(6,8-Difluoro-1,2,3,4-tetrahydroisoquinolin-7-yl)-1H-pyrazolo[4,3-d]pyrimidin-3-yl)-N-methylpyrimidin-2-amine]	≤ 100 nM
CS(=O)(=O)NCc1ccc(-c2n[nH]c3cnc(-c4c(F)cc5c(c4F)CNCC5)nc23)cc1 [Example 95, N-(4-(5-(6,8-Difluoro-1,2,3,4-tetrahydroisoquinolin-7-yl)-1H-pyrazolo[4,3-d]pyrimidin-3-yl)benzyl)methanesulfonamide]	≤ 100 nM

The next lines start with the values.

Ki	SMILES
≤ 100 nM	O=S(=O)(c1ccc(-c2n[nH]c3cnc(-c4c(F)cc5c(c4F)CNCC5)nc23)cc1)N1CCC1 [Example 96, 7-(3-(4-(Azetidin-1-ylsulfonyl)phenyl)-1H-pyrazolo[4,3-d]pyrimidin-5-yl)-6,8-difluoro-1,2,3,4-tetrahydroisoquinoline]
≤ 100 nM	Fc1cc2c(c(F)c1-c1ncc3[nH]nc(-c4ccc(OC(F)F)nc4)c3n1)CNCC2 [Example 97, 7-(3-(6-(Difluoromethoxy)pyridin-3-yl)-1H-pyrazolo[4,3-d]pyrimidin-5-yl)-6,8-difluoro-1,2,3,4-tetrahydroisoquinoline]
≤ 100 nM	Fc1cc2c(c(F)c1-c1ncc3[nH]nc(-c4ccc(N5CCOCC5)nc4)c3n1)CNCC2 [Example 98, 4-(5-(5-(6,8-Difluoro-1,2,3,4-tetrahydroisoquinolin-7-yl)-1H-pyrazolo[4,3-d]pyrimidin-3-yl)pyridin-2-yl)morpholine]
≤ 100 nM	CN1CCN(c2ccc(-c3n[nH]c4cnc(-c5c(F)cc6c(c5F)CNCC6)nc34)cc2)CC1 [Example 99, 6,8-Difluoro-7-(3-(4-(4-methylpiperazin-1-yl)phenyl)-1H-pyrazolo[4,3-d]pyrimidin-5-yl)-1,2,3,4-tetrahydroisoquinoline]
≤ 100 nM	COc1ccc(-c2ncc3[nH]nc(-c4ccc(N5CCN(C)CC5)cc4)c3n2)c2c1CNCC2 [Example 100, 8-Methoxy-5-(3-(4-(4-methylpiperazin-1-yl)phenyl)-1H-pyrazolo[4,3-d]pyrimidin-5-yl)-1,2,3,4-tetrahydroisoquinoline]
